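Briefly, cells in 96-well plates were exposed to five compound concentrations for 48 h, and endpoints were estimated by linear interpolation. GI50: concentration for 50% inhibition of growth. Definition used: TGI = concentration required for complete inhibition of growth.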
What was measured:
Assay in all cases: NCI tumour cell line growth inhibition, 48 h
[1] = test system: 786-0 renal
[2] = test system: A549 NSCLC
[3] = test system: ACHN renal
[4] = test system: BT-549 breast
[5] = test system: CAKI-1 renal
[6] = test system: CCRF-CEM leukemia
[7] = test system: COLO 205 colon
[8] = test system: DU-145 prostate
[9] = test system: EKVX NSCLC
[10] = test system: HCC-2998 colon
[11] = test system: HCT-116 colon
[12] = test system: HCT-15 colon
[13] = test system: HL-60(TB) leukemia
[14] = test system: HOP-62 NSCLC
[15] = test system: HOP-92 NSCLC
[16] = test system: HT29 colon
[17] = test system: IGROV1 ovarian
[18] = test system: K-562 leukemia
[19] = test system: M14 melanoma
[20] = test system: MALME-3M melanoma
[21] = test system: MCF7 breast
[22] = test system: MDA-N
[23] = test system: MOLT-4 leukemia
[24] = test system: NCI-H226 lung
[25] = test system: NCI-H23 lung
[26] = test system: NCI-H460 lung
[27] = test system: NCI-H522 lung
[28] = test system: NCI/ADR-RES ovarian
[29] = test system: OVCAR-3 ovarian
[30] = test system: OVCAR-4 ovarian
[31] = test system: OVCAR-5 ovarian
[32] = test system: OVCAR-8 ovarian
[33] = test system: PC-3 prostate
[34] = test system: RPMI-8226 leukemia
[35] = test system: RXF 393 renal
[36] = test system: SF-268 CNS
[37] = test system: SF-295 CNS
[38] = test system: SF-539 CNS
[39] = test system: SK-MEL-2 melanoma
[40] = test system: SK-MEL-28 melanoma
[41] = test system: SK-MEL-5 melanoma
[42] = test system: SK-OV-3 ovarian
[43] = test system: SN12C renal
[44] = test system: SNB-19 CNS
[45] = test system: SNB-75 CNS
[46] = test system: SR leukemia
[47] = test system: SW-620 colon
[48] = test system: TK-10 renal
[49] = test system: U251 CNS
[50] = test system: UACC-257 melanoma
[51] = test system: UACC-62 melanoma
[52] = test system: UO-31 renal
[53] = test system: MDA-MB-231 breast
[54] = test system: A498 renal
[55] = test system: HS 578T breast
[56] = test system: KM12 colon
[57] = test system: LOX IMVI melanoma
[58] = test system: MDA-MB-435
[59] = test system: T-47D breast

CN(C)CCCNC(=O)c1c(-c2cccnc2)cnc2ccccc12
TGI [1]: > 100 µM
TGI [2]: > 100 µM
TGI [3]: > 100 µM
TGI [4]: > 100 µM
TGI [5]: > 100 µM
TGI [6]: > 100 µM
TGI [7]: > 100 µM
TGI [8]: > 100 µM
TGI [9]: > 100 µM
TGI [10]: > 100 µM
TGI [11]: > 100 µM
TGI [12]: > 100 µM
TGI [13]: > 100 µM
TGI [14]: > 100 µM
TGI [15]: > 100 µM
TGI [16]: > 100 µM
TGI [17]: > 100 µM
TGI [18]: > 100 µM
TGI [19]: > 100 µM
TGI [20]: > 100 µM
TGI [21]: > 100 µM
TGI [22]: > 100 µM
TGI [23]: > 100 µM
TGI [24]: > 100 µM
TGI [25]: > 100 µM
TGI [26]: > 100 µM
TGI [27]: > 100 µM
TGI [28]: > 100 µM
TGI [29]: > 100 µM
TGI [30]: > 100 µM
TGI [31]: > 100 µM
TGI [32]: > 100 µM
TGI [33]: > 100 µM
TGI [34]: > 100 µM
TGI [35]: > 100 µM
TGI [36]: > 100 µM
TGI [37]: > 100 µM
TGI [38]: > 100 µM
TGI [39]: > 100 µM
TGI [40]: > 100 µM
TGI [41]: > 100 µM
TGI [42]: > 100 µM
TGI [43]: > 100 µM
TGI [44]: > 100 µM
TGI [45]: > 100 µM
TGI [46]: > 100 µM
TGI [47]: > 100 µM
TGI [48]: > 100 µM
TGI [49]: > 100 µM
TGI [50]: > 100 µM
TGI [51]: > 100 µM
TGI [52]: > 100 µM

CN(C)CCOc1ccc2[nH]c(C(=O)N3CC(CCl)c4c3cc(NC(=O)OCc3ccc([N+](=O)[O-])cc3)c3ccccc43)cc2c1 (stereo unspecified)
TGI [1]: 2.09 µM
TGI [2]: 2.52 µM
TGI [7]: 3.29 µM
TGI [8]: 1.9 µM
TGI [9]: 3.14 µM
TGI [10]: > 100 µM
TGI [11]: 2.17 µM
TGI [12]: 3.58 µM
TGI [19]: 2.88 µM
TGI [20]: 2.86 µM
TGI [53]: 3.23 µM
TGI [22]: 2.86 µM
TGI [24]: 3.72 µM
TGI [26]: > 100 µM
TGI [31]: 2.95 µM
TGI [38]: 2.99 µM
TGI [40]: 3.06 µM
TGI [41]: 2.76 µM
TGI [43]: 2.95 µM
TGI [47]: 2.61 µM
TGI [48]: > 100 µM
TGI [49]: > 100 µM
TGI [50]: > 100 µM
TGI [51]: 5.36 µM
TGI [52]: 2.56 µM

c1ccc2nc3c(cc2c1)Sc1cc2ccccc2[n+]2c1N3CC2
GI50 [1]: 43 µM
TGI [1]: > 100 µM
GI50 [54]: 34.1 µM
TGI [54]: > 100 µM
GI50 [2]: 11.9 µM
TGI [2]: > 100 µM
GI50 [3]: > 100 µM
TGI [3]: > 100 µM
GI50 [4]: 19.1 µM
TGI [4]: > 100 µM
GI50 [5]: 64.5 µM
TGI [5]: > 100 µM
GI50 [6]: 26.8 µM
TGI [6]: > 100 µM
GI50 [7]: 3.57 µM
TGI [7]: 25.5 µM
GI50 [8]: 53.9 µM
TGI [8]: > 100 µM
GI50 [9]: 21 µM
TGI [9]: > 100 µM
GI50 [10]: 18.5 µM
TGI [10]: 64.3 µM
GI50 [11]: 30.8 µM
TGI [11]: > 100 µM
GI50 [12]: > 100 µM
TGI [12]: > 100 µM
GI50 [13]: 32.5 µM
TGI [13]: > 100 µM
GI50 [14]: 20.8 µM
TGI [14]: 78.1 µM
GI50 [15]: 27.9 µM
TGI [15]: > 100 µM
GI50 [55]: 18.3 µM
TGI [55]: 85.1 µM
GI50 [16]: 33.8 µM
TGI [16]: > 100 µM
GI50 [17]: 22.8 µM
TGI [17]: > 100 µM
GI50 [18]: 14 µM
TGI [18]: > 100 µM
GI50 [56]: 11 µM
TGI [56]: 40.3 µM
GI50 [57]: 41.3 µM
TGI [57]: > 100 µM
GI50 [19]: 16.2 µM
TGI [19]: 45 µM
GI50 [20]: 4.17 µM
TGI [20]: 23.3 µM
GI50 [21]: 8.67 µM
TGI [21]: > 100 µM
GI50 [53]: 31.6 µM
TGI [53]: > 100 µM
GI50 [58]: 21.1 µM
TGI [58]: 65.7 µM
GI50 [23]: 22.1 µM
TGI [23]: > 100 µM
GI50 [24]: 45 µM
TGI [24]: > 100 µM
GI50 [25]: 21.9 µM
TGI [25]: > 100 µM
GI50 [26]: 20.3 µM
TGI [26]: 63.9 µM
GI50 [27]: 26.7 µM
TGI [27]: > 100 µM
GI50 [28]: > 100 µM
TGI [28]: > 100 µM
GI50 [29]: 21.2 µM
TGI [29]: > 100 µM
GI50 [30]: 24.7 µM
TGI [30]: > 100 µM
GI50 [31]: > 100 µM
TGI [31]: > 100 µM
GI50 [32]: 25.3 µM
TGI [32]: > 100 µM
GI50 [33]: 27.4 µM
TGI [33]: > 100 µM
GI50 [34]: 15.6 µM
TGI [34]: > 100 µM
GI50 [35]: 13.7 µM
TGI [35]: 54.9 µM
GI50 [36]: 23.6 µM
TGI [36]: > 100 µM
GI50 [37]: 65.7 µM
TGI [37]: > 100 µM
GI50 [38]: 35.9 µM
TGI [38]: > 100 µM
GI50 [39]: 17.6 µM
TGI [39]: 43.9 µM
GI50 [40]: 20.8 µM
TGI [40]: 83.9 µM
GI50 [41]: 3.66 µM
TGI [41]: 20 µM
GI50 [42]: > 100 µM
TGI [42]: > 100 µM
GI50 [43]: 21.5 µM
TGI [43]: > 100 µM
GI50 [44]: 19.7 µM
TGI [44]: 91.9 µM
GI50 [45]: 26.9 µM
TGI [45]: > 100 µM
GI50 [46]: 13.5 µM
TGI [46]: > 100 µM
GI50 [47]: 32.5 µM
TGI [47]: > 100 µM
GI50 [59]: 15 µM
TGI [59]: 64.9 µM
GI50 [48]: 36.4 µM
TGI [48]: > 100 µM
GI50 [49]: 24 µM
TGI [49]: > 100 µM
GI50 [50]: 11.6 µM
TGI [50]: 34.8 µM
GI50 [51]: 13.5 µM
TGI [51]: 28.8 µM
GI50 [52]: > 100 µM
TGI [52]: > 100 µM

CC(C)CC(NC(=O)C(CSc1ccc([N+](=O)[O-])cc1)Cc1ccccc1)C(=O)Nc1ccccc1 (stereo unspecified)
TGI [1]: > 100 µM
TGI [54]: > 100 µM
TGI [2]: > 100 µM
TGI [3]: > 100 µM
TGI [4]: 59.5 µM
TGI [5]: > 100 µM
TGI [6]: > 100 µM
TGI [7]: > 100 µM
TGI [8]: > 100 µM
TGI [9]: > 100 µM
TGI [10]: > 100 µM
TGI [11]: > 100 µM
TGI [12]: > 100 µM
TGI [13]: > 100 µM
TGI [15]: > 100 µM
TGI [17]: > 100 µM
TGI [18]: > 100 µM
TGI [56]: > 100 µM
TGI [57]: > 100 µM
TGI [19]: > 100 µM
TGI [20]: 80.5 µM
TGI [21]: > 100 µM
TGI [53]: > 100 µM
TGI [58]: > 100 µM
TGI [22]: > 100 µM
TGI [23]: > 100 µM
TGI [25]: > 100 µM
TGI [26]: > 100 µM
TGI [27]: > 100 µM
TGI [28]: > 100 µM
TGI [29]: > 100 µM
TGI [30]: > 100 µM
TGI [31]: > 100 µM
TGI [32]: > 100 µM
TGI [33]: > 100 µM
TGI [34]: > 100 µM
TGI [35]: > 100 µM
TGI [37]: > 100 µM
TGI [38]: > 100 µM
TGI [39]: > 100 µM
TGI [40]: > 100 µM
TGI [41]: > 100 µM
TGI [42]: > 100 µM
TGI [43]: > 100 µM
TGI [44]: > 100 µM
TGI [45]: 65.1 µM
TGI [46]: > 100 µM
TGI [47]: > 100 µM
TGI [48]: > 100 µM
TGI [49]: > 100 µM
TGI [50]: > 100 µM
TGI [51]: > 100 µM
TGI [52]: > 100 µM

Reference: PubChem BioAssay (NCI)
